Data taken from patent publication EP1363614B1, “USE OF 2-AMINO-1-(4-HYDROXY-3-METHANESULPHONAMIDOPHENYL)ETHANOL FOR TREATING URINARY INCONTINENCE” (Boehringer Ingelheim Pharma GmbH & Co. KG, priority 2001, dated 2002).

What was measured:
human urethra = assay: Efficacy: contraction of human urethra compared with noradrenaline; assay type: cell-based; conditions: percentage of contraction compared with noradrenaline
Protocol: (§1) The efficacy and selectivity of the compound according to the invention is determined as follows, using the same findings as described in 1:
Maximum contraction in the dog and activity on human urethra are percentages of contraction compared with noradrenaline.

[1] = Metabolism: substrate breakdown by the enzyme CYP2D6; assay type: in vitro ADME; conditions: 30 minutes' incubation with CYP2D6; read-out: % Substrate breakdown after 30 minutes' incubation with CYP2D6
Protocol: To determine the metabolism the enzyme CYP2D6 was allowed to act on the hydrochloride of the compound 1 according to the formula I (2-amino-1-(4-hydroxy-3-methanesulphonamidophenyl)ethanol). After 30 minutes a check was made to determine how much of the substance had been broken down by the enzyme. (-)-R-2-Amino-1-(2-fluoro-5-methanesulphonamido-phenyl)ethanol 2 was used as a comparison.

[2] = system: dog's femoral artery; carotid artery in the dog; assay: Selectivity in the dog: femoral artery versus carotid artery contraction; assay type: cell-based; conditions: difference of percentage contraction of dog's femoral artery at 10^-5 M and percentage contraction of carotid artery at 10^-5 M
Protocol: as §1
Selectivity in the dog is the difference obtained from the percentage contraction of the dog's femoral artery at 10^-5 M and percentage contraction of the carotid artery in the dog at 10^-5 M.

| metabolised at 0.5 h [1] | Compound | Emax (human urethra) | selectivity in the dog [2] |
| --- | --- | --- | --- |
| 2.1% | CS(=O)(=O)Nc1ccc(F)c([C@@H](O)CN)c1 [Compound 2, (-)-R-2-Amino-1-(2-fluoro-5-methanesulphonamido-phenyl)ethanol] | 48% | 40 |
| 1.4% | CS(=O)(=O)Nc1cc(C(O)CN)ccc1O (stereo not drawn) [Compound 1, 2-amino-1-(4-hydroxy-3-methanesulphonamidophenyl)ethanol] | 120% | 53 |
